Drawing on PubChem BioAssay AID2305 (GlaxoSmithKline (GSK), 2010), this text covers IC50 for 82 molecules.

The structures appear in SMILES notation.

The test system of the experiment is P. falciparum 3D7 growth, pLDH absorbance. Briefly: blood-stage malaria parasite growth potency – strain 3D7, dose response (AID 2305).
In the case of `COc1ccc2ccc(F)c(CC(=O)N3CCOC(CNCc4cccc(-c5ccc(F)cc5)n4)C3)c2n1` (configuration not stated), the concentration for half-maximal inhibition (IC50) (commonly the concentration at which inhibition is half-maximal) was found to be 1.01 µM. This lies in the single-digit micromolar range.
For `O=C(/C=C/c1ccc(Cl)c(Cl)c1)NCCCCCN1CCC(CCNC(=O)/C=C/c2ccc(Cl)c(Cl)c2)CC1`, the IC50 came to 0.56 µM.
To `CCC(CC)(Cc1ccccc1)NC(=O)[C@H](CC(C)C)Nc1ccc(C#N)c2ccccc12` belongs 0.91 µM.
For `CCCOc1cc(Cc2cnc(N)nc2N)cc(OC)c1OC`, the IC50 turned out to be 1.17 µM.
To `COc1cc(CNC[C@@H](O)[C@H](Cc2ccccc2)NC(=O)c2cc(OC(C)C)cc(N3CCCS3(=O)=O)c2)cc(OC)c1` belongs 0.8 µM; to `CCCCCCCN(Cc1ccc(OC(C)(C)C(=O)OCC)cc1)C(=O)Cc1ccc(F)cc1F`, 1.03 µM; to `COc1ccc2nccc(NN=Cc3ccccc3F)c2c1`, 0.62 µM.
Turning to `O=C(NCc1cccc2ccccc12)[C@@H]1CCCN1C(=O)c1ccc(O)c(-c2ccc(Cl)c(Cl)c2)c1`, the IC50 was found to be 0.95 µM.
The molecule `COc1ccc(Nc2nccc(NCCNC(=O)c3cc4ccccc4s3)n2)cc1` registered an IC50 of 1.02 µM.
Turning to `O=S(=O)(c1ccc(OC(F)(F)F)cc1)C1C[C@H]2CC[C@@H](C1)N2S(=O)(=O)c1ccc(Cl)c(C(F)(F)F)c1` (some centres not stated), the IC50 was determined as 0.56 µM. This IC50 is about 1.8-fold lower than that of the molecule before.
Molecule `COc1ccc(Nc2nccc(-c3ccc(NC(=O)c4cc5cc(F)ccc5[nH]4)cc3)n2)cc1` returned an IC50 of 0.63 µM.
Take `COc1cc2nc(N3CCC(CNC(=O)c4ccc(NC(=O)c5ccc(Cl)cc5)cc4)CC3)nc(N)c2cc1OC`: the concentration for half-maximal inhibition (IC50) came to 0.26 µM.
For `O=C(NCCc1ccccc1)N(Cc1ccccc1-c1ccc(CNCCc2ccccc2)cc1)C1CCN(Cc2ccccc2)CC1`, the IC50 came out at 0.72 µM.
Turning to `COc1ccc2nc3cc(Cl)ccc3c(NCCCN3CCNCC3)c2c1`, the IC50 came to 0.23 µM.
Molecule `COc1ccccc1/C=C/C(=O)N(C)C1CCN(CCCCCNC(=O)/C=C/c2ccc(Cl)c(Cl)c2)CC1` yielded an IC50 of 0.44 µM.
Take `O=S(=O)(NCCN1CCCC1)c1cccc(-c2cccc(CNCc3ccccc3)c2)c1`: the IC50 stood at 0.81 µM.
As to `Cc1nc2ccc3ccc(CNc4ccc(C(=O)N[C@@H](CCC(=O)O)C(=O)N[C@@H](Cc5cccs5)C(=O)O)c(F)c4)cc3c2c(=O)[nH]1`, the IC50 turned out to be 0.79 µM.
`CCCCCCn1c(Sc2ccc(C#N)c([N+](=O)[O-])c2)nnc1-c1ccc(Cl)cc1` had an IC50 of 0.83 µM.
For the molecule `Nc1cc2c(C3CCN(CC4CCN(C(=O)/C=C/c5ccc(Cl)c(Cl)c5)CC4)CC3)c[nH]c2cn1`, the half-inhibitory concentration (IC50) amounted to 0.97 µM.
Molecule `CC1CCC(NC(=O)c2nn(-c3ccc(Cl)cc3)c(=O)c3ccccc23)CC1` (configuration not stated) displayed an IC50 of 1.08 µM.
In the case of `CCc1cn2c3c(cc(C(=O)N[C@@H](Cc4ccccc4)[C@H](O)CNC4CCOCC4)cc13)N(C(C)C)S(=O)(=O)CC2`, the half-inhibitory concentration (IC50) amounted to 0.08 µM. This IC50 is about 14-fold lower than that of the molecule before.
Consider `c1cc(CNC2CCCC2)cc(-c2ccc(CNc3ccc4ncccc4c3)cc2)c1`, for which the IC50 turned out to be 0.77 µM. Compared with the last molecule, the IC50 is about 9.6-fold higher.
As for `O=C(CCCCCNC(=O)c1ccc(O)c(-c2ccc(Cl)c(Cl)c2)c1)NCCc1ccc(Cl)c(Cl)c1`, the 50% inhibitory concentration (IC50) is 0.76 µM.
In the case of `O=C(/C=C/c1ccc(Cl)c(Cl)c1)N1CCC(CCN2CCC(c3c[nH]c4cc5c(cc34)OCO5)CC2)CC1`, the IC50 was found to be 0.73 µM.
`CCCCNCc1ccc(-c2nc(CN(CCCn3ccnc3)C(=O)N[C@@H]3C[C@H]3c3ccccc3)cs2)cc1`: the concentration for half-maximal inhibition (IC50) worked out at 0.74 µM.
`COC(=O)c1cccc(CNCc2cccc(-c3cccc(-c4nc5ccc(C(F)(F)F)cc5[nH]4)c3)c2)c1` displayed an IC50 of 0.17 µM.
The figure for `Clc1ccc(-c2cc(-c3csc(NCCN4CCOCC4)n3)on2)c(Cl)c1` is 0.66 µM; for `CCCCCCc1cnc2nc(N)nc(N)c2c1C` it is 0.19 µM.
As to `O=C(NCc1ccccc1)NC(CCCN1CCC(Oc2cccc(Cl)c2)CC1)c1ccc(Cl)c(Cl)c1` (configuration not stated), the IC50 was 0.86 µM.
To `CN(C)CCN1CCN(Cc2cccc(-c3csc(-c4nc5ccccc5[nH]4)c3)c2)CC1` belongs 0.4 µM; to `CCNc1cc(C(=O)N[C@@H](Cc2ccccc2)[C@H](O)CNCCCc2ccc(OC)cc2)cc(N2CCCC2=O)c1`, 0.56 µM; to `CC(C)CC(C)NC(=O)C1Cc2c([nH]c3cc(Cl)ccc23)C2(CCN(CCc3ccccc3)CC2)N1` (configuration not stated), 0.81 µM.
`CC(C)(CN)c1cc(-c2ccc(Cl)c(O)c2)c(-c2ccncc2)o1` gave an IC50 of 1.14 µM.
In the case of `CCCCOc1cc(CNCCCCCCNCc2cc(OCCCC)cc3ccccc23)c2ccccc2c1`, the IC50 is 0.74 µM.
Molecule `C=C[C@H]1CN2CC[C@@H]1C[C@H]2[C@H](O)c1cc(-c2ccc(F)cc2)nc2ccc(OC)cc12` returned an IC50 of 0.17 µM.
Molecule `COc1ccc(S(=O)(=O)N2CCC3(CC2)OCC(=O)NC3c2ccc(Cl)c(Cl)c2)cc1` (configuration not stated) had an IC50 of 0.64 µM.
As for `O=C(/C=C/c1cc(C(F)(F)F)ccc1F)NC1CCC(CN2CCC(c3c[nH]c4ccccc34)CC2)CC1` (configuration not stated), the half-maximal inhibitory concentration (IC50) came to 0.82 µM.
To `CCCCCCCNCCNc1cc(C)nc2ccccc12` belongs 0.39 µM; to `COc1ccc2cc(CNCCCCCCNCc3ccc4cc(OC)ccc4c3)ccc2c1`, 0.62 µM; to `Nc1cccc(CNCc2ccc(-c3ccc(-c4nc5ccc(C(F)(F)F)cc5[nH]4)s3)cc2)c1`, 0.44 µM.
`CC(=O)Nc1ccc2[nH]cc(C3CCN(CCC4CCN(C(=O)/C=C/c5ccc(Cl)c(Cl)c5)CC4)CC3)c2n1` yielded an IC50 of 0.52 µM.
Regarding `Cn1cncc1CCCN(Cc1ccc(-c2ccc(C(F)(F)F)cc2)cc1)C(=O)Cn1c(CCc2cccc(F)c2F)cc(=O)c2cccnc21`, the IC50 was 1.25 µM. This IC50 lies about 2.4-fold higher than the previous one.
With `O=C(Nc1cccc(C(F)(F)F)c1)NC1CCN(c2ccnc3cc(Cl)ccc23)C1` (configuration not stated), the concentration for half-maximal inhibition (IC50) turned out to be 0.12 µM.
`CN1CCN(c2ccc3nc(-c4ccc(Cc5cc(Cl)ccc5OCc5ccccc5)o4)[nH]c3c2)CC1` returned an IC50 of 0.81 µM.
The molecule `COc1ccc2nccc(NN=Cc3ccc(N(C)C)cc3)c2c1` returned an IC50 of 0.8 µM. The IC50 values of the last two molecules are within 1.5-fold of each other.
With `COc1ccc(CCNc2nc(NCCc3cnc[nH]3)nc(NCc3cccc4ccccc34)n2)cc1OC`, the half-inhibitory concentration (IC50) is 0.54 µM.
On to `CN(C)CCNC(=O)c1cc2c(-c3ccc(Cl)cc3)nn(C)c2s1`, for which the IC50 was 0.67 µM.
The molecule `Cc1ccc(O)c(C(=O)c2cc(C(=O)Nc3ccccc3C)c(=O)n(-c3ccccc3C)c2)c1` showed a half-maximal inhibitory concentration (IC50) of 0.78 µM.
Regarding `Cc1ccccc1C1CCN(C2CCC(NC(=O)/C=C/c3ccc(F)cc3)CC2)CC1` (configuration not stated), the IC50 stood at 1.34 µM.
In the case of `Cc1ccc(Cn2ncc(N3CCNCC3)c(Cl)c2=O)cc1NC(=O)Nc1ccc(-c2ccccc2)cc1`, the IC50 worked out at 1.12 µM.
The figure for `O=S(=O)(Nc1cccc(CCN2CCC(N3CCCCC3)CC2)c1)c1cccc2ccccc12` is 0.94 µM; for `COc1ccc2nc3cc(Cl)ccc3c(Nc3ccc(Sc4ccc(Nc5c6ccc(Cl)cc6nc6ccc(OC)cc56)cc4)cc3)c2c1` it is 0.2 µM; for `COc1ccc(C2=CCN(c3ccc(Cl)c(Cl)c3)C2=O)cc1OCCN1CCCCC1` it is 0.78 µM.
Take `COc1ccc(CCNc2nc(NCc3ccccc3)c3cc(OC)c(OC)cc3n2)cc1OC`: the IC50 was 0.33 µM.
`OC(CNCc1cccc(Oc2ccc(Cl)cc2)c1)c1cccc(C(F)(F)F)c1` (configuration not stated) yielded an IC50 of 0.97 µM. This IC50 lies about 2.9-fold higher than the previous one.
To `CCN(CC)c1ccc(C(c2ccc(N(CC)CC)cc2)c2cccc([N+](=O)[O-])c2)cc1` belongs 0.38 µM.
In turn, `COc1cc(C=C(C2=NC(=O)CS2)c2nc3cccnc3n2C)ccc1O` displayed a 50% inhibitory concentration (IC50) of 1 µM.
For the molecule `CN(C)CCCc1cc(NC(=O)Nc2cccc(Cl)c2Cl)ccc1I`, the IC50 is 0.54 µM.
Consider `Cn1nccc1C(=O)NCCNCc1cccc(-c2csc(-c3nc4ccccc4[nH]3)c2)c1`, for which the IC50 was determined as 0.84 µM.
The molecule `O=C(/C=C/c1cccc(C(F)(F)F)c1)NCCCCCN1CCN(C(=O)Nc2ccc(Cl)c(Cl)c2)CC1` registered a 50% inhibitory concentration (IC50) of 0.93 µM.
The figure for `CCc1cn2c3c(cc(C(=O)N[C@@H](Cc4ccccc4)[C@H](O)CNC4CCOCC4)cc13)N(CC(F)(F)F)S(=O)(=O)CC2` is 0.03 µM; for `COc1ccc(NC(=O)c2ccc(-c3nc(-c4ccc(Cl)cc4)cs3)cc2)cc1N1CCN(C)CC1` it is 0.92 µM.
The figure for `Nc1c2c(nc3ccc(NC(=O)CCCCCc4ccccc4)cc13)CCCC2` is 0.44 µM.
`CC(C)(C)c1ccc(CN(C[C@@H](O)CNS(=O)(=O)c2cc(Cl)cc(Cl)c2)C(C)(C)C)cc1`: the IC50 stood at 0.93 µM.
`Clc1ccccc1OCc1ccccn1` yielded a 50% inhibitory concentration (IC50) of 0.99 µM.
The molecule `CCOC(=O)CN(c1ccc(Br)cc1OCCOc1cc(Br)ccc1N(CC(=O)OCC)C(C)C(=O)OCC)C(C)C(=O)OCC` (configuration not stated) registered an IC50 of 0.81 µM. This IC50 and that of the molecule before are within 1.5-fold of each other.
In the case of `COc1cc2nc(NCCn3nc(C)cc3C)nc(NCCc3ccccc3)c2cc1OC`, the 50% inhibitory concentration (IC50) is 0.44 µM. This IC50 lies about 1.8-fold lower than the previous one.
Take `Cc1cccc2[nH]c(-c3cccc(-c4ccc(CNCc5cnn(-c6ccccc6)n5)cc4)c3)nc12`: the IC50 was found to be 0.92 µM.
`COc1ccc(C2c3ccccc3-c3nc(N)nc(N)c3C2C)cc1` (configuration not stated) showed an IC50 of 0.24 µM. This IC50 lies about 3.8-fold lower than the previous one.
Consider `CCOC(=O)c1ccc(NC(=O)N(Cc2ccc(-c3ccc(CN4CCNCC4)cc3)cc2)Cc2cccnc2)cc1`, for which the IC50 stood at 0.93 µM.
For `Cc1cc(C(=O)Nc2ccc3c(c2)CCN3C2CCN(Cc3cc(F)cc(F)c3F)C2)no1` (configuration not stated), the 50% inhibitory concentration (IC50) amounted to 0.28 µM.
`O=C(C=Cc1cn(-c2ccccc2)nc1-c1ccccc1)N1CCN(c2ccncc2)CC1` had an IC50 of 0.96 µM.
The molecule `O=C(Nc1ccc(-c2ccc(-c3nc4ccc(C(F)(F)F)cc4[nH]3)cc2)cc1)Nc1ccc(F)c(F)c1F` registered a half-inhibitory concentration (IC50) of 0.22 µM.
The figure for `Cc1cccc(C(=O)Nc2ccnc(N3CCC(N(C)Cc4cccc(O)c4)CC3)c2)c1` is 0.92 µM; for `OC1CCCN(Cc2cccc(-c3ccc(-c4nc5ccc(F)cc5[nH]4)cc3)c2)C1` (configuration not stated) it is 0.78 µM; for `Nc1nc(N)c2c(CCc3ccc(Cl)c(Cl)c3)cccc2n1` it is 0.67 µM.
As for `Nc1nc(Nc2cccc(Cl)c2)ncc1C(=O)NCc1ccncc1`, the IC50 was found to be 0.83 µM.
The figure for `CC(C)NCC(=O)Nc1cccc(C(=O)Nc2cccc(C(F)(F)F)c2)c1` is 0.27 µM; for `CC(=O)c1ccc(N2C(=O)C3C(Cc4ccc(OC(C)(C)C)cc4)NC4(C(=O)N(Cc5ccc(C(C)(C)C)cc5)c5ccccc54)C3C2=O)cc1` (configuration not stated) it is 1.28 µM.
Regarding `Cc1cc(O)c(C(C)C)cc1C1(c2cc(C(C)C)c(O)cc2C)OC(=O)c2ccccc21`, the IC50 stood at 0.87 µM.
Take `Cc1cccn2c(=O)c3cc(C(=O)NC(C)c4ccccc4)c(=N)n(CCN4CCOCC4)c3nc12` (configuration not stated): the concentration for half-maximal inhibition (IC50) was 0.82 µM.
The molecule `CC(C)(C)OC(=O)N(Cc1cc(-n2nnnc2C(F)(F)F)ccc1O)[C@H]1CCCN(C(=O)OC(C)(C)C)[C@H]1c1ccccc1` had a 50% inhibitory concentration (IC50) of 0.72 µM.
